Assay in all cases: relative viability (nuclei count vs DMSO), 5 days (fraction); higher = more cells survive
Compound in the assay “Wnt-C59 + Palbociclib”: CC1=NC=CC(=C1)C2=CC=C(C=C2)CC(=O)NC3=CC=C(C=C3)C4=CN=CC=C4 [Wnt-C59] + CC(=O)c1c(C)c2cnc(Nc3ccc(N4CCNCC4)cn3)nc2n(C2CCCC2)c1=O [Palbociclib] (partner 0.5 µM)
The essentials: (§1)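 A single step with final 0.05% Triton X-100, 1% formaldehyde and 1 ug/ml Hoechst fixed the cells and stained nuclei 5 days after treatment. Lung cancer cell lines in 1536-well plates had been treated by pin tool the day after seeding with one drug alone or a fixed anchor-drug dose plus five library-drug doses (not always all listed) in √10 steps, and nuclei were counted on 4× images. Relative viability is the ratio of nuclei in treated wells to nuclei in vehicle wells, taken as the median of duplicate plates.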

Compound in the assay “Wnt-C59 + Foretinib”: CC1=NC=CC(=C1)C2=CC=C(C=C2)CC(=O)NC3=CC=C(C=C3)C4=CN=CC=C4 [Wnt-C59] + COc1cc2c(Oc3ccc(NC(=O)C4(C(=O)Nc5ccc(F)cc5)CC4)cc3F)ccnc2cc1OCCCN1CCOCC1 [Foretinib] (partner 0.25 µM)
The essentials:
as §1

Compound in the assay “Wnt-C59 + Linsitinib”: CC1=NC=CC(=C1)C2=CC=C(C=C2)CC(=O)NC3=CC=C(C=C3)C4=CN=CC=C4 [Wnt-C59] + C[C@]1(O)C[C@@H](c2nc(-c3ccc4ccc(-c5ccccc5)nc4c3)c3c(N)nccn32)C1 [Linsitinib] (partner 1 µM)
The essentials: as §1

Compound in the assay “Lapatinib + Decitabine”: CS(=O)(=O)CCNCc1ccc(-c2ccc3ncnc(Nc4ccc(OCc5cccc(F)c5)c(Cl)c4)c3c2)o1 [Lapatinib] + Nc1ncn([C@H]2C[C@H](O)[C@@H](CO)O2)c(=O)n1 [Decitabine] (partner 2 µM)
The gist of the method: as §1

For the cell line UMC-11, the relative viability in the assay with Wnt-C59 + Palbociclib (first compound 0.001 µM) amounted to 0.337; in the assay with Wnt-C59 + Palbociclib (first compound 0.01 µM), 0.319; in the assay with Wnt-C59 + Palbociclib (first compound 0.03162 µM), 0.361; with Wnt-C59 + Palbociclib (first compound 0.1 µM), 0.305; in the assay with Wnt-C59 + Foretinib (first compound 0.001 µM), 1.04; in the assay with Wnt-C59 + Foretinib (first compound 0.01 µM), 1.01. Also, the relative viability with Wnt-C59 + Foretinib (first compound 0.03162 µM) came to 1.06; in the assay with Wnt-C59 + Foretinib (first compound 0.1 µM) it was 0.996; with Wnt-C59 + Linsitinib (first compound 0.001 µM), 0.96; in the assay with Wnt-C59 + Linsitinib (first compound 0.01 µM), 0.977; in the assay with Wnt-C59 + Linsitinib (first compound 0.03162 µM) it was 1.04; in the assay with Wnt-C59 + Linsitinib (first compound 0.1 µM) it was 0.991. Moreover, the relative viability was 0.493 with Lapatinib + Decitabine (first compound 0.02 µM); 0.541 with Lapatinib + Decitabine (first compound 0.06325 µM); 0.627 with Lapatinib + Decitabine (first compound 0.2 µM); 0.518 in the assay with Lapatinib + Decitabine (first compound 0.6325 µM); 0.604 with Lapatinib + Decitabine (first compound 2 µM).

The values above are taken from the supplement of paper PMC10307832.
